# Test results taken from BindingDB's records for doi:10.1016/0922-4106(95)90014-4 (University of Cagliari, 1995).
# Several values for one entry are separate records, joined by “and”; a condition that tells them apart may be missing. Equal values may be shown once.
# Molecular target: Gamma-aminobutyric acid receptor subunit alpha-1 (Rattus norvegicus, UniProt P62813)
# Sequence (P62813 whole entry): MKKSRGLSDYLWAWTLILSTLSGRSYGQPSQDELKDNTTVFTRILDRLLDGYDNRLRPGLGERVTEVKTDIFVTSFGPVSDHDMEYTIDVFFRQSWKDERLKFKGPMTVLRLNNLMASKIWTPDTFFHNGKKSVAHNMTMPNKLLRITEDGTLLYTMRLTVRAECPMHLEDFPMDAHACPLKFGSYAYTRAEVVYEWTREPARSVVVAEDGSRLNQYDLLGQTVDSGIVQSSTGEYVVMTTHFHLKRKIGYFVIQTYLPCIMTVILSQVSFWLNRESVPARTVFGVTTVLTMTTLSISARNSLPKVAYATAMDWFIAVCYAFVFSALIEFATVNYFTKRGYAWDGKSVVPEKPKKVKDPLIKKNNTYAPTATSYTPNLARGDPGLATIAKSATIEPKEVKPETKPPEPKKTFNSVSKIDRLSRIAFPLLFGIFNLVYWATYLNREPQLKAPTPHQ
row,SMILES,Ki
1,CN1C(=O)CN=C(c2ccccc2F)c2cc([N+](=O)[O-])ccc21 [Flunitrazepam],1.37 nM and 1.52 nM
2,Cc1nnc2ccc(-c3cccc(C(F)(F)F)c3)nn12,1310 nM
